# Reference: US12049483B2, “Selective and noncovalent inhibitors of oncogenic RAS mutants” (New York University, priority 2020, dated 2024)
# How the values were obtained:
# [1] = target: T1, KRAS(G12V) (Homo sapiens, UniProt P01116, G12V); assay: BLI binding to KRAS(G12V); settings: nucleotide state GTPγS
# T1 construct: KRAS4B residues 1-174 containing G12C, G12V, G12D, G13D, Q61L, WT; His6 (N, cleaved yes); Avi-tag (N, cleaved yes); made in house; host or cells: E. coli BL21(DE3)
# Description: Protein expression and purification. All proteins used for monobody development and binding assays, including RAS constructs (KRAS4B residues 1-174 containing G12C, G12V, G12D, G13D, Q61L, WT, NRAS(WT), and HRAS(WT)), Monobodies, and RAF-1 RBD (residues 51-131) were produced with an N-terminal tag containing His6, Avi-tag for biotinylation and a TEV protease recognition site using the pHBT vector. The proteins were produced in E. coli BL21(DE3). To produce biotinylated proteins, E. coli BL21(DE3) with the pBirA plasmid was used as the host and grown in the presence of 50 μM of biotin. Expressed proteins were purified using Ni-Sepharose columns (GE Healthcare) via gravitational flow, followed by dialysis in Tris buffered saline (TBS, 50 mM Tris-Cl pH7.5 containing 150 mM NaCl) for non-RAS proteins. TBS containing 20 mM MgCl2 and 0.5 mM DTT was used for RAS proteins. Samples were further purified using a Superdex 75 size exclusion column on AKTA Pure systems (GE Healthcare). HRAS(WT) and HRAS(G12C) (residues 1-166) used for crystallization was produced as a fusion protein with His6 and yeast SUMO at the N terminus using an in-house vector described previously. […]
# Biolayer interferometry (BLI) analysis. […] BLI signals were analyzed using Octet Data Analysis software (Molecular Devices).
# [2] = test system: RAS-mediated signaling (pERK); assay: ERK activation in HEK293T cells co-expressing monobody and RAS mutants; format: cell-based; settings: expressed intracellularly as a genetically encoded reagent
# Description: Transient expression of KRAS and monobody for confocal imaging and signaling experiments. HEK293T cells were cultured in glass-bottom 8-well chambers (ibidi GmbH) for colocalization assays or in a 12-well plate for signaling assays for one day prior to transfection. On the day of transfection at 70-90% confluency, media were replaced with antibiotics-free complete media (DMEM supplemented with 10% FBS). Transfection of pEGFP vectors encoding the appropriate mCherry fused monobodies and EGFP fused KRAS4B constructs was performed with lipofectamine 3000 (Thermo Fisher Scientific) and according to the manufacturer's recommended protocol. […]
# Cell signaling assay and quantification of immunoblots. […] The supernatant was collected and measured for total protein amount using BCA assay (Thermo Scientific; 23227). […] The proteins were then transferred from the gel to a low fluorescence background PVDF membrane (Millipore; IPFL00010) or regular PVDF membrane (Millipore; ISEQ00010) depending on whether fluorescence or chemiluminescence detection was performed. Phospho-ERK was detected using a rabbit anti-pERK antibody (Cell Signaling; 9101S) and total ERK was detected using a rabbit anti-ERK antibody (Cell Signaling; 9102S). Monobody expression was detected using mouse anti-Flag antibody (Sigma; F3165) or anti-HA tag antibody (BioLegend; 901516). […]
sequence,measurement,setting,value
VSSVPTKLEVVAATPTSLLISWDAPAVTVFFYVITYGETGHGVGAFQAFKVPGSKSTATISGLKPGVDYTITVYARGYSKQGPYKPSPISINYRT [12VC1],koff,[1],0.007 s⁻¹
same,RAS-mediated signaling,[2],potently inhibited
